Some test systems named below: MOLT-4 leukemia; SF-295 CNS; A498 renal; PC-3 prostate; A549 NSCLC; M14 melanoma; NCI-H460 lung; SN12C renal; OVCAR-4 ovarian; SK-OV-3 ovarian.
Experiment in all cases: NCI anticancer screen, dose series, 48 h

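These data come from cells grown in 96-well plates and exposed to compound for 48 hours at five concentrations. At the GI50, growth is halved. TGI denotes the concentration required for complete inhibition of growth.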

Turning to `O=C(Nc1ccc(-n2cc(-c3ccncc3)c(-c3ccc(O)c(Cl)c3)n2)cc1)Nc1ccc(Cl)c(C(F)(F)F)c1`, the GI50 is 3.18 µM in the assay with MOLT-4 leukemia; 2990 nM in the assay with SF-295 CNS; 14.8 µM in the assay on A498 renal; 2490 nM with PC-3 prostate; 3.6 µM in the assay on A549 NSCLC; 2.48 µM in the assay on M14 melanoma. Besides, the GI50 in the assay with NCI-H460 lung is 3.33 µM; in the assay on SN12C renal, 4.28 µM; in the assay with OVCAR-4 ovarian it was 3.97 µM. Also, the TGI in the assay with MOLT-4 leukemia was found to be 16.4 µM; in the assay on SF-295 CNS, 14.6 µM; with A498 renal, 34.3 µM; in the assay with PC-3 prostate, 8.74 µM; in the assay on A549 NSCLC, 17.4 µM; in the assay on M14 melanoma, 6.33 µM. Also, the TGI in the assay on NCI-H460 lung was determined as 11.4 µM; with SN12C renal, 17.2 µM; in the assay on OVCAR-4 ovarian it was 29.9 µM.

Take `C/C(=N\NC(=S)NCCCCNC(=S)N/N=C(\C)c1ccccn1)c1ccccc1`: the TGI in the assay with MOLT-4 leukemia was above 30.5 µM; with SF-295 CNS, above 37.6 µM; in the assay on A498 renal, 15 µM; with PC-3 prostate, above 100 µM; with A549 NSCLC, above 58 µM; in the assay on NCI-H460 lung, 4.71 µM. For the same compound, the TGI was 38.9 µM in the assay on SK-OV-3 ovarian, 4.43 µM in the assay on SN12C renal and above 54.2 µM with OVCAR-4 ovarian.

For the compound `CC(C)C(=O)CC(c1ccc(Cl)cc1)N1N=C(C(C)C)CC1c1ccc(Cl)cc1` (centres undefined), the GI50 in the assay on MOLT-4 leukemia was 22.4 µM; in the assay with M14 melanoma, 54.5 µM. In addition, the TGI in the assay with MOLT-4 leukemia is 83.4 µM; in the assay with SF-295 CNS, above 31.6 µM; in the assay on A549 NSCLC, above 100 µM; with M14 melanoma it was above 100 µM; in the assay with NCI-H460 lung, above 100 µM; with SN12C renal it was above 100 µM.

On to `CC(C)CC(=O)NC(C(=O)NC(C(=O)NC(CC(C)C)C(O)CC(=O)NC(C)C(=O)NC(CC(C)C)C(O)CC(=O)O)C(C)C)C(C)C` (centres undefined), for which the TGI in the assay on MOLT-4 leukemia, in the assay on SF-295 CNS, in the assay with A498 renal, in the assay on PC-3 prostate, in the assay with A549 NSCLC and with M14 melanoma was above 100 µM throughout. Further, the TGI with NCI-H460 lung, in the assay with SK-OV-3 ovarian, with SN12C renal and in the assay with OVCAR-4 ovarian was above 100 µM in each case.

`CC(=O)O[C@@H]1C(=O)N(c2ccccc2)[C@@H]1c1cc2ccccc2c2ccccc12`: the TGI in the assay with MOLT-4 leukemia was 56 µM; in the assay on SF-295 CNS it was above 100 µM; in the assay on A498 renal it was above 100 µM; in the assay with PC-3 prostate, above 100 µM; in the assay with A549 NSCLC, above 100 µM; with M14 melanoma, above 100 µM. The TGI in the assay on NCI-H460 lung was above 100 µM; in the assay with SK-OV-3 ovarian, above 100 µM; in the assay with SN12C renal, above 100 µM; in the assay on OVCAR-4 ovarian it was 78.5 µM.

Regarding `N#CCCN(CCC#N)c1ccc(/C=C(\NC(=O)c2cc([N+](=O)[O-])ccc2Cl)C(=O)Nc2ccccc2)cc1`, the TGI in the assay with MOLT-4 leukemia, in the assay with SF-295 CNS, with A549 NSCLC, with SK-OV-3 ovarian, in the assay on SN12C renal and in the assay with OVCAR-4 ovarian was above 100 µM throughout.

On to `Cn1ccc(C(=O)NCCN(CCNC(=O)c2ccn(C)c(=O)c2O)CCNC(=O)c2ccn(C)c(=O)c2O)c(O)c1=O`, for which the TGI in the assay on SF-295 CNS, in the assay on A498 renal, in the assay on PC-3 prostate, with A549 NSCLC, in the assay with M14 melanoma and in the assay with NCI-H460 lung was above 100 µM in each case. For the same compound, the TGI in the assay on SK-OV-3 ovarian, in the assay with SN12C renal and with OVCAR-4 ovarian was above 100 µM each time.

Take `CCCn1cc2c(SC)nc(SC)nc2n1`: the TGI with MOLT-4 leukemia, in the assay with SF-295 CNS, in the assay on A498 renal, in the assay with A549 NSCLC, with M14 melanoma and with NCI-H460 lung was above 100 µM each time. Further, the TGI with SN12C renal and in the assay with OVCAR-4 ovarian was above 100 µM throughout.

Take `O=C(O)CCc1nc2ccccc2[nH]1`: the TGI in the assay with MOLT-4 leukemia, with SF-295 CNS, in the assay on A498 renal, in the assay with PC-3 prostate, in the assay on A549 NSCLC and in the assay on M14 melanoma was above 100 µM throughout. The TGI in the assay on NCI-H460 lung, in the assay on SK-OV-3 ovarian, in the assay with SN12C renal and in the assay on OVCAR-4 ovarian was above 100 µM throughout.

In the case of `CCOC(=O)C(Cc1cn(C(C)=O)c2ccccc12)P(=O)(OCC)OCC` (centres undefined), the TGI in the assay with MOLT-4 leukemia, in the assay with SF-295 CNS, with PC-3 prostate, with A549 NSCLC, with M14 melanoma and in the assay on NCI-H460 lung was above 100 µM in each case. For the same compound, the TGI with SK-OV-3 ovarian, in the assay on SN12C renal and in the assay on OVCAR-4 ovarian was above 100 µM in each case.

In the case of `O=C(O)c1cc(=O)c2c(OCC(O)COc3cccc4oc(C(=O)O)cc(=O)c34)cccc2o1`, the TGI with MOLT-4 leukemia was above 100 µM; with SF-295 CNS, above 100 µM; in the assay with A498 renal, above 83.6 µM; in the assay on PC-3 prostate it was above 100 µM; in the assay with A549 NSCLC it was above 100 µM; with M14 melanoma it was above 100 µM. In addition, the TGI with NCI-H460 lung, in the assay on SK-OV-3 ovarian, with SN12C renal and with OVCAR-4 ovarian was above 100 µM in each case.

As to `Cn1ncc2c(Nc3cccc(Cl)c3)nc(Nc3cccc(Cl)c3)nc21`, the TGI is 47.4 µM in the assay on MOLT-4 leukemia; 21.1 µM in the assay on SF-295 CNS; 28.9 µM in the assay on A498 renal; 36 µM in the assay with PC-3 prostate; above 53.4 µM in the assay on A549 NSCLC; above 58.4 µM in the assay with M14 melanoma. Besides, the TGI was above 30.9 µM with NCI-H460 lung, 54 µM in the assay on SK-OV-3 ovarian, above 67.5 µM in the assay on SN12C renal and 47.6 µM with OVCAR-4 ovarian.

As to `COc1ccc(C(O)(c2ccccc2)c2nccc3ccccc23)cc1` (centres undefined), the TGI in the assay on MOLT-4 leukemia is 11.9 µM; in the assay on SF-295 CNS, above 100 µM; with PC-3 prostate it was above 100 µM; in the assay with A549 NSCLC, above 100 µM; with M14 melanoma it was 8.34 µM; in the assay on NCI-H460 lung, 38.9 µM. For the same compound, the TGI in the assay with SK-OV-3 ovarian, in the assay on SN12C renal and in the assay with OVCAR-4 ovarian was above 100 µM throughout.

Consider `c1ccc(C(NC2=NCCO2)c2ccccc2)cc1`, for which the TGI with MOLT-4 leukemia, in the assay with SF-295 CNS, with A498 renal, in the assay on PC-3 prostate, with A549 NSCLC and with M14 melanoma was above 10 µM throughout. Also, the TGI with NCI-H460 lung, in the assay with SK-OV-3 ovarian, with SN12C renal and in the assay with OVCAR-4 ovarian was above 10 µM each time.

As to `C/C(=N\NC(=S)N(C)C)c1nc2ncccc2[nH]1`, the TGI with MOLT-4 leukemia was 9.86 µM; in the assay on A498 renal, 69.5 µM; in the assay on PC-3 prostate it was above 100 µM; in the assay on A549 NSCLC, above 100 µM; in the assay on NCI-H460 lung it was above 100 µM; in the assay with SK-OV-3 ovarian it was 5.53 µM. Besides, the TGI in the assay on SN12C renal is above 100 µM; in the assay on OVCAR-4 ovarian, 10.6 µM.

As to `NNC(=O)CCSc1ccccc1`, the TGI in the assay with MOLT-4 leukemia, in the assay with SF-295 CNS, in the assay on A498 renal, with PC-3 prostate, with A549 NSCLC and in the assay on M14 melanoma was above 100 µM in each case. Also, the TGI in the assay with NCI-H460 lung, in the assay with SK-OV-3 ovarian, in the assay on SN12C renal and with OVCAR-4 ovarian was above 100 µM throughout.

For `OCCCNc1ncnc2[nH]ncc12`, the TGI in the assay on MOLT-4 leukemia, in the assay on SF-295 CNS, with A498 renal, in the assay with PC-3 prostate, in the assay with A549 NSCLC and in the assay on M14 melanoma was above 100 µM in each case. Further, the TGI in the assay on NCI-H460 lung, in the assay with SK-OV-3 ovarian, in the assay with SN12C renal and in the assay on OVCAR-4 ovarian was above 100 µM each time.

Source of the values: PubChem BioAssay (NCI).
